In US7862751B2, “Formulation of fine particles using liquefield or dense gases” (MAP Pharmaceuticals, Inc., priority 2002, dated 2011):

Tests used:
[1] = coadministration of cyclosporine; J Clin Oncol 2001; cited from earlier work
Particle size by SEM = format: physicochemical; settings: processed with CO2 at 190 bar, 50° C. and 25° C.
Method: SEM images at 2 different magnifications, namely 100× (FIG. 11a) and 2510× (FIG. 11b), of fenofibrate processed at 50° C. and 190 are shown in FIG. 11.
SEM images were taken, using a Hitachi S4500 electron microscope. The samples were chromium coated for 60 seconds with a current of 125 mA, with a Emitech E4500 coater.

[2] = cited from earlier work

SMILES	bioavailability [1]	particle size (Particle size by SEM)	solubility in water [2]
CC(=O)O[C@@]12CO[C@@H]1C[C@H](O)[C@@]1(C)C(=O)[C@H](O)C3=C(C)[C@@H](OC(=O)[C@H](O)[C@@H](NC(=O)OC(C)(C)C)c4ccccc4)C[C@@](O)([C@@H](OC(=O)c4ccccc4)[C@H]21)C3(C)C [docetaxel]	strongly enhanced	–	–
Cc1ccc(C)c(OCCCC(C)(C)C(=O)O)c1 [gemfibrozil, 5-(2,5-dimethylphenoxy)-2,2-dimethylpentanoic acid]	–	approximately 5 microns	very poorly soluble
